Structures are written as SMILES.

The first experiment relates to 1516 (donor line of iPSC-derived cardiomyocytes). The experiment in a line: POD (EC05) for decrease in beat frequency (negative chronotrope) vs vehicle; higher = less potent (higher point of departure). The settings on record: exposure time: 90 min. In short, it runs like this:
(§1)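 Ca2+ flux in human iPSC-derived cardiomyocytes from 16 donors was recorded on a FLIPR Tetra for 100 s before and after a 90 min exposure at 37 °C to 0.1, 1, 10 and 100 µM (final, 0.5% DMSO). Donor-specific points of departure came from hierarchical Bayesian Hill fits to vehicle-normalised beat frequency, decay-to-rise ratio or peak frequency. A 5% change served as threshold, except for peak frequency, where it was a 95% loss.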
The molecule `O=C(O)C=C(C(F)(F)F)C(F)(F)F` [3,3-Bis(trifluoromethyl)-2-propenoic_acid] registered a POD vs vehicle above 100 µM.
Take `O=C(O)C=CC(F)(C(F)(F)F)C(F)(F)F` [3-(Perfluoroisopropyl)-2-propenoic_acid]: the POD vs vehicle was above 100 µM.
Same read-out and setting: for `O=C(O)CCC(F)(F)C(F)(F)C(F)(F)C(F)(F)C(F)(F)C(F)(F)C(F)(F)F` [3-Perfluoroheptylpropanoic_acid] the value was 56.9 µM.
Same read-out and setting: for `O=C(O)CCC(F)(F)C(F)(F)C(F)(F)F` [3:3 Fluorotelomer carboxylic acid] the value was above 100 µM.
The same measure, in the same setting: for `O=C(CC(=O)C(F)(F)C(F)(F)F)C(F)(F)F` [3H,3H-Perfluoro-2,4-hexanedione] the value was 45.3 µM; for `OCCC(F)(F)C(F)(F)C(F)(F)C(F)(F)F` [4:2 Fluorotelomer alcohol], above 100 µM; for `O=S(=O)(O)CCC(F)(F)C(F)(F)C(F)(F)C(F)(F)F` [4:2 Fluorotelomer sulfonic acid], above 100 µM.
`O=C([O-])C(F)(F)C(F)(F)C(F)(F)C(F)(F)C(F)(F)C(F)(F)C(F)(F)F.[NH4+]` [Ammonium_perfluorooctanoate] had a POD vs vehicle of 58.4 µM.
Same read-out and setting: for `OCC(F)(F)OC(F)(F)C(F)(F)OC(F)(F)C(F)(F)OC(F)(F)F` [Fluorinated_triethylene_glycol_monomethyl_ether] the value was above 100 µM; for `CN(CCO)S(=O)(=O)C(F)(F)C(F)(F)C(F)(F)C(F)(F)C(F)(F)C(F)(F)C(F)(F)C(F)(F)F` [N-Methyl-N-(2-hydroxyethyl)perfluorooctanesulfonamide], above 100 µM.
In turn, `O=S(=O)(O)C(F)(F)C(F)(F)C(F)(F)C(F)(F)F` [Perfluorobutanesulfonic_acid] displayed a POD vs vehicle of 29.7 µM.

The test system of another experiment is 1565 (donor line of iPSC-derived cardiomyocytes). The description is as above. The settings on record: exposure time: 90 min. In short, it runs like this:
as §1
Molecule `NC(=O)C(F)(F)C(F)(F)C(F)(F)C(F)F` yielded a POD vs vehicle above 100 µM.
The same measure, in the same setting: for `OCC(O)CC(F)(F)C(F)(F)C(F)(F)C(F)(F)C(F)(F)C(F)(F)C(F)(F)C(F)(F)F` (centres undefined) [1-(Perfluorofluorooctyl)propane-2,3-diol] the value was above 100 µM; for `CC(O)C(F)(F)C(F)(F)F` (centres undefined) [1-Pentafluoroethylethanol], above 100 µM.
Consider `OCC(F)(F)C(F)(F)C(F)(F)C(F)F` [1H,1H,5H-Perfluoropentanol], for which the POD vs vehicle was above 100 µM.
On the same count and under the same terms, for `O=S(=O)(OCC(F)(F)F)C(F)(F)C(F)(F)C(F)(F)C(F)(F)F` [2,2,2-Trifluoroethyl_perfluorobutanesulfonate] the value was above 100 µM; for `O=C(O)C(F)(F)C(F)(F)C(F)F` [2,2,3,3,4,4-Hexafluorobutanoic_acid], above 100 µM.
With `NC(O)(C(F)(F)F)C(F)(F)F` [2-Aminohexafluoropropan-2-ol], the POD vs vehicle is above 100 µM.
On the same count and under the same terms, for `O=C(O)CCC(F)(F)C(F)(F)C(F)(F)C(F)(F)C(F)(F)F` [2H,2H,3H,3H-Perfluorooctanoic_acid] the value was above 100 µM; for `O=C(O)C=C(C(F)(F)F)C(F)(F)F` [3,3-Bis(trifluoromethyl)-2-propenoic_acid], above 100 µM.
The molecule `O=C(O)C=CC(F)(C(F)(F)F)C(F)(F)F` [3-(Perfluoroisopropyl)-2-propenoic_acid] had a POD vs vehicle above 100 µM.
With `O=C(O)CCC(F)(F)C(F)(F)C(F)(F)C(F)(F)C(F)(F)C(F)(F)C(F)(F)F` [3-Perfluoroheptylpropanoic_acid], the POD vs vehicle is above 100 µM.
In turn, `O=C(O)CCC(F)(F)C(F)(F)C(F)(F)F` [3:3 Fluorotelomer carboxylic acid] returned a POD vs vehicle above 100 µM.
Same read-out and setting: for `O=C(CC(=O)C(F)(F)C(F)(F)F)C(F)(F)F` [3H,3H-Perfluoro-2,4-hexanedione] the value was above 100 µM.
`OCCC(F)(F)C(F)(F)C(F)(F)C(F)(F)F` [4:2 Fluorotelomer alcohol]: the POD vs vehicle is above 100 µM.
As for `O=S(=O)(O)CCC(F)(F)C(F)(F)C(F)(F)C(F)(F)F` [4:2 Fluorotelomer sulfonic acid], the POD vs vehicle is above 100 µM.
On the same count and under the same terms, then `O=C([O-])C(F)(F)C(F)(F)C(F)(F)C(F)(F)C(F)(F)C(F)(F)C(F)(F)F.[NH4+]` [Ammonium_perfluorooctanoate], with above 100 µM.
As to `OCC(F)(F)OC(F)(F)C(F)(F)OC(F)(F)C(F)(F)OC(F)(F)F` [Fluorinated_triethylene_glycol_monomethyl_ether], the POD vs vehicle was above 100 µM.
Still for that read-out and setting: then `CN(CCO)S(=O)(=O)C(F)(F)C(F)(F)C(F)(F)C(F)(F)C(F)(F)C(F)(F)C(F)(F)C(F)(F)F` [N-Methyl-N-(2-hydroxyethyl)perfluorooctanesulfonamide], with above 100 µM; and `O=S(=O)(O)C(F)(F)C(F)(F)C(F)(F)C(F)(F)F` [Perfluorobutanesulfonic_acid], with above 100 µM.
Molecule `O=C(O)C(F)(F)C(F)(F)C(F)(F)C(F)(F)C(F)(F)C(F)(F)C(F)(F)C(F)(F)C(F)(F)C(F)(F)F` [Perfluoroundecanoic_acid] had a POD vs vehicle above 100 µM.

Another experiment deals with 20084 (donor line of iPSC-derived cardiomyocytes). Described as above. The settings on record: exposure time: 90 min. The method, boiled down:
as §1
For `NC(=O)C(F)(F)C(F)(F)C(F)(F)C(F)F`, the POD vs vehicle is above 100 µM.
The same measure, in the same setting: for `OCC(O)CC(F)(F)C(F)(F)C(F)(F)C(F)(F)C(F)(F)C(F)(F)C(F)(F)C(F)(F)F` (centres undefined) [1-(Perfluorofluorooctyl)propane-2,3-diol] the value was above 100 µM; for `CC(O)C(F)(F)C(F)(F)F` (centres undefined) [1-Pentafluoroethylethanol], above 100 µM.
Molecule `OCC(F)(F)C(F)(F)C(F)(F)C(F)F` [1H,1H,5H-Perfluoropentanol] yielded a POD vs vehicle of 35.1 µM.
On the same count and under the same terms, for `O=S(=O)(OCC(F)(F)F)C(F)(F)C(F)(F)C(F)(F)C(F)(F)F` [2,2,2-Trifluoroethyl_perfluorobutanesulfonate] the value was above 100 µM; for `O=C(O)C(F)(F)C(F)(F)C(F)F` [2,2,3,3,4,4-Hexafluorobutanoic_acid], above 100 µM.
`NC(O)(C(F)(F)F)C(F)(F)F` [2-Aminohexafluoropropan-2-ol]: the POD vs vehicle is above 100 µM.
`O=C(O)CCC(F)(F)C(F)(F)C(F)(F)C(F)(F)C(F)(F)F` [2H,2H,3H,3H-Perfluorooctanoic_acid] came in with a POD vs vehicle of 20 µM.
Still for that read-out and setting: for `O=C(O)C=C(C(F)(F)F)C(F)(F)F` [3,3-Bis(trifluoromethyl)-2-propenoic_acid] the value was above 100 µM; for `O=C(O)C=CC(F)(C(F)(F)F)C(F)(F)F` [3-(Perfluoroisopropyl)-2-propenoic_acid], above 100 µM.
The molecule `O=C(O)CCC(F)(F)C(F)(F)C(F)(F)C(F)(F)C(F)(F)C(F)(F)C(F)(F)F` [3-Perfluoroheptylpropanoic_acid] came in with a POD vs vehicle above 100 µM.
`O=C(O)CCC(F)(F)C(F)(F)C(F)(F)F` [3:3 Fluorotelomer carboxylic acid]: the POD vs vehicle was above 100 µM.
In turn, `O=C(CC(=O)C(F)(F)C(F)(F)F)C(F)(F)F` [3H,3H-Perfluoro-2,4-hexanedione] showed a POD vs vehicle above 100 µM.
Molecule `OCCC(F)(F)C(F)(F)C(F)(F)C(F)(F)F` [4:2 Fluorotelomer alcohol] had a POD vs vehicle above 100 µM.
The same measure, in the same setting: for `O=S(=O)(O)CCC(F)(F)C(F)(F)C(F)(F)C(F)(F)F` [4:2 Fluorotelomer sulfonic acid] the value was above 100 µM.
In the case of `O=C([O-])C(F)(F)C(F)(F)C(F)(F)C(F)(F)C(F)(F)C(F)(F)C(F)(F)F.[NH4+]` [Ammonium_perfluorooctanoate], the POD vs vehicle was above 100 µM.
Same read-out and setting: for `OCC(F)(F)OC(F)(F)C(F)(F)OC(F)(F)C(F)(F)OC(F)(F)F` [Fluorinated_triethylene_glycol_monomethyl_ether] the value was above 100 µM; for `CN(CCO)S(=O)(=O)C(F)(F)C(F)(F)C(F)(F)C(F)(F)C(F)(F)C(F)(F)C(F)(F)C(F)(F)F` [N-Methyl-N-(2-hydroxyethyl)perfluorooctanesulfonamide], above 100 µM.
